Test results as given in patent US20240043615A1, “AMINO ACID POLYMER-PLATINUM ANTICANCER DRUG CONJUGATES” (priority 2020, published 2024).
Entries after “also recorded” stand apart in the source; their conditions may differ.

How the values were obtained:
[1] = test system: A2780 cisplatin-resistant cells (A2780-Cis); experiment: Cytotoxicity in cisplatin-resistant A2780 cells; format: cell-based, human; conditions: different concentrations of Pt, 30 min
Method: (§1) A2780 cisplatin-resistant cells (A2780-Cis) and multiple drug resistant MDA-MB-231 cells (MDA-MB-231/MDR) were employed as models of drug resistant cells. 5×10^3 A2780-Cis or MDA-MB-231/MDR cells/well were seeded in a 96-well plate and cultured overnight. […] The results of this study are found in FIGS. 8A and 8B.

[2] = test system: multiple drug resistant MDA-MB-231 cells (MDA-MB-231/MDR); experiment: Cytotoxicity in multiple drug resistant MDA-MB-231 cells; format: cell-based, human; conditions: different concentrations of Pt, 30 min
Method: as §1

CT26 cells [3] = conditions: for cell viability of CT26 cells with respect to incubation time: 25 μg Pt/mL, different time points, CCK8; for cell viability of CT26 cells: varying platinum concentration, 30 min
Method: 5×10^3 CT26 cells/well were seeded in a 96-well plate and cultured overnight. […] Cell viability was detected by CCK8 assay. The concentration of each of the platinum derivatives was calculated based on platinum concentration.
(§2) CT26, A2780 or MDA-MB-231 cells were seeded in a 96-well plate and cultured overnight.
The concentration of each of the platinum derivatives was calculated based on platinum concentration.

[4] = test system: A2780 human ovarian cancer cells; experiment: Cytotoxicity in A2780 cells; format: cell-based; conditions: varying platinum concentration, 30 min
Method: as §2

[5] = test system: MDA-MB-231 human breast cancer cells; experiment: Cytotoxicity in MDA-MB-231 cells; format: cell-based; conditions: varying platinum concentration, 30 min
Method: as §2

CT26 cells [6] = experiment: LysoTracker flow cytometry (lysosomal rupture); format: cell-based, mouse; conditions: treatment 1 h; LysoTracker deep red 100 nM 40 min
Method: CT26 cells were seeded in a 6-well plate and cultured overnight. […] Cells were then stained with LysoTracker deep red (100 nM) for 40 min. Cells were analyzed by flow cytometry.

CT26 cells [7] = experiment: Annexin-V/propidium iodide flow cytometry (apoptosis/necrosis); format: cell-based, mouse; conditions: 15 μg (Pt)/mL, different times
Method: CT26 cells were seeded in a 6-well plate and cultured overnight. […] Apoptosis: Annexin V^+ PI^−, Necrosis: PI^+.

CT26 tumor [8] = experiment: Anti-tumor efficacy, CT26 tumor-bearing mice; format: in vivo; conditions: i.v.
A2780 tumor = experiment: Anti-tumor efficacy, A2780 tumor-bearing mice; format: in vivo; conditions: i.v.
CT26 cells [9] = conditions: dynasore, chlorpromazine, genistein, cytochalasin D 40 min, then 25 μg (Pt)/mL for 30 min
CT26 cells [10] = conditions: short-time treatment
[11] = test system: A2780 cisplatin-resistant tumor; conditions: i.v.; control 5% glucose
CT26 tumor [12] = conditions: CT26-tumor bearing mice, i.v., same dosage of oxaliplatin and P(G-A)-Asp-Pt
[13] = Body weight change in mice; conditions: single 8 mg (Pt)/kg injection
[14] = Spleen toxicity evaluation in mice; conditions: mice after treatment
[15] = Plasma pharmacokinetics in tumor-free mice (Pt by ICP-OES); conditions: 4 mg (Pt)/kg Pt-equivalent dosage
Method: The dosage was calculated based on Pt. Plasma samples were collected at different time points. Pt content was measured by ICP-OES.

[16] = same Pt dosage of oxaliplatin and P(G-A)-Asp-Pt, control 5% glucose

Row | Molecule | cell viability of A2780-Cis cells [1] | cell viability of MDA-MB-231/MDR cells [2] | cell viability of CT26 cells with respect to incubation time (CT26 cells [3]) | cell viability of CT26 cells (CT26 cells [3]) | cell viability of A2780 cells [4] | cell viability of MDA-MB-231 cells [5] | LysoTracker signal (MFI) in CT26 cells (CT26 cells [6]) | CT26 tumor growth (CT26 tumor [8]; [16]) | A2780 tumor growth (A2780 tumor; [16]) | A2780-Cis tumor growth [11] | other results
1 | N.N.[Cl][Pt][Cl] [cisplatin] | little effect | little effect | – | – | – | – | – | – | – | – | –
2 | Poly L-Glutamic and poly L-Aspartic acid (Glu:Asp = 7:3)-L-Aspartic-Platinum [P(G-A)-Asp-Pt] | able to kill these drug resistant cells in 30 min | able to kill these drug resistant cells in 30 min | induce rapid cell death in as short as 30 min | able to kill these cancer cells; also recorded: best cytotoxicity to CT26 cells compared to the other platinum derivatives tested; also recorded: better efficacy that P(G-A)-Glu-Pt and P(G-A)-D-Asp-Pt | able to kill these cancer cells | able to kill these cancer cells | reduced LysoTracker signal | significantly inhibited tumor growth compared to the same oxaliplatin dosage | significantly inhibited tumor growth compared to the same oxaliplatin dosage | significantly prohibited A2780-Cis tumor growth | IC50 in CT26 cells in different incubation times (CT26 cells [3]; 24 and 48 h, compared with oxaliplatin): lower IC50; necrosis (PI+) of CT26 cells (CT26 cells [7]): triggered cancer cell necrosis quickly in 30 min; CT26 tumor growth (CT26 tumor [8]; high dose): completely inhibited the growth; mice with complete response, CT26 tumors (CT26 tumor [8]; high dose): over 40%; A2780 tumor growth (A2780 tumor; high dose): completely inhibited the growth; mice with complete response, A2780 tumors (A2780 tumor; high dose): over 40%; viability of CT26 cells pre-treated with endocytosis/micropinocytosis inhibitors (CT26 cells [9]): partially restore cell viability; morphological changes in CT26 cells (CT26 cells [10]): Obvious cancer cell swelling and disrupted plasma membrane
3 | Poly L-Glutamic and poly L-Aspartic acid (Glu:Asp = 7:3)-Platinum [P(G-A)-Pt] | – | – | – | best cytotoxicity to CT26 cells compared to the other platinum derivatives tested | – | – | – | – | – | – | –
4 | O=C1[O][Pt]2([NH][C@@H]3CCCC[C@H]3[NH]2)[O]C1=O [oxaliplatin, reference compound] | little effect | little effect | little effect within that time interval | little effect | little effect | little effect | little effect | partially slowed CT26 and A2780 tumor growth | partially slowed CT26 and A2780 tumor growth | partial anti-tumor efficacy on A2780-Cis tumors | apoptosis (Annexin V+ PI−) of CT26 cells (CT26 cells [7]): induced cell apoptosis gradually from 0.5 h to 18 h; Pt concentration in tumors versus time (CT26 tumor [12]): rapidly dropped over time; body weight decrease [13]: more than 15%; spleen appearance and weight [14]: dramatically shrunken with decreased weight; Pt concentration in plasma versus time (circulation time) [15]: quickly cleared from plasma
